A short description of test [1]: Cytotoxicity against mouse EAC. The format is functional, cell-based. The note with it: Ehrlich.
Test [2] in a line: Cytotoxicity against sea urchin egg. The format is functional, Strongylocentrotus intermedius.

Turning to `C=C[C@@]1(C)CCC2=C(C1)C(=O)C[C@H]1[C@@](C)(CO[C@@H]3O[C@H](CO)[C@@H](O)[C@@H](O)[C@@H]3O)C(=O)CC[C@]21C`, the IC50 was 25 µM in test [1] and 100 µM in test [2].
For `C=C[C@@]1(C)CC[C@H]2C(=CC[C@@H]3[C@]2(C)C[C@@H](O)[C@H](O)[C@]3(C)CO[C@@H]2O[C@H](CO[C@H]3O[C@H](CO)[C@@H](O)[C@H](O)[C@H]3O)[C@@H](O)[C@@H](O)[C@@H]2O)C1` [VIRESCENOSIDE R] the same measures were 25 µM and 100 µM.
The like results for `C=C[C@]1(C)C=C2[C@H](O)C[C@@H]3[C@](C)(CCC(=O)[C@]3(C)CO[C@@H]3O[C@H](CO)[C@@H](O)[C@@H](O)[C@@H]3O)[C@H]2CC1` were, in that order, 25 µM and 100 µM.
For `C=C[C@]1(C)C=C2C(=O)C[C@@H]3[C@](C)(CCC(=O)[C@]3(C)CO[C@@H]3O[C@H](CO)[C@@H](O)[C@@H](O)[C@@H]3O)[C@H]2CC1` the same measures were 25 µM and 100 µM.

Broadly, the IC50 is the point on the concentration scale where inhibition reaches its midpoint. A higher IC50 goes with a need for much substance.

The values above are taken from ChEMBL document CHEMBL1151239, “New glycosides of the fungus Acremonium striatisporum isolated from a sea cucumber” (J Nat Prod, 2004).
